Measured values taken from patent US11458138B2 (Novartis AG, priority 2017, dated 2022).

Experiments:
[1] = target: LATS1 (Homo sapiens (Human), UniProt O95835); test: LATS1 biochemical assay (Table 1A, Compound Examples 1-290; method in the earlier part)
[2] = target: Human LATS1 kinase domain protein (Homo sapiens (Human), UniProt O95835); test: LATS1 Biochemical Caliper Assay; conditions: 400 micromolar ATP
Method: Human LATS1 kinase domain protein was purchased from Carnabio (catalogue number 01-123), which harbors the catalytic domain of amino acids 589-1130, and was co-purified with human His-tagged MOBKL1A (NP_775-739). 5 microlitre of enzyme buffer, 100 nL of compounds and 5 microlitre of localising aid buffer were added into 384-well plates. The final assay reaction mix contains 100 mM HEPES, pH7.5, 0.1% BSA, 0.01% Triton X-100, 1 mM DTT, 10 mM MgCl2, 10 micromolar Sodium Orthovanadate, 10 micromolar Beta-Glycerophosphate, 400 micromolar ATP, 1% DMSO, 1.1 nM LATS1 enzyme (Carnabio, 01-123), 1 micromolar localising aid of FAM-[…]-COOH (SEQ ID NO: 24) (NanoSyn). The plates were incubated at 25° C. for 3 hours. 40 microlitre of stop buffer with 25 mM EDTA (NanoSyn) was added to each well to terminate the reaction. Localising aids and products were separated electrophoretically using the microfluidic-based Caliper Labchip 3000 Drug Discovery System (Caliper Life Sciences). Plates were read using blue laser excitation and green fluorescence detection and quantified by fluorescence intensity. […] According to this assay the LATS1 IC50 values in micromolar for the following compounds are: […]

[3] = target: Human LATS2 kinase domain protein (Homo sapiens (Human), UniProt Q9NRM7); test: LATS2 Biochemical Caliper Assay (Compound Examples 1-290); conditions: 400 micromolar ATP
Human LATS2 kinase domain protein, sequence (Q9NRM7 553-1088): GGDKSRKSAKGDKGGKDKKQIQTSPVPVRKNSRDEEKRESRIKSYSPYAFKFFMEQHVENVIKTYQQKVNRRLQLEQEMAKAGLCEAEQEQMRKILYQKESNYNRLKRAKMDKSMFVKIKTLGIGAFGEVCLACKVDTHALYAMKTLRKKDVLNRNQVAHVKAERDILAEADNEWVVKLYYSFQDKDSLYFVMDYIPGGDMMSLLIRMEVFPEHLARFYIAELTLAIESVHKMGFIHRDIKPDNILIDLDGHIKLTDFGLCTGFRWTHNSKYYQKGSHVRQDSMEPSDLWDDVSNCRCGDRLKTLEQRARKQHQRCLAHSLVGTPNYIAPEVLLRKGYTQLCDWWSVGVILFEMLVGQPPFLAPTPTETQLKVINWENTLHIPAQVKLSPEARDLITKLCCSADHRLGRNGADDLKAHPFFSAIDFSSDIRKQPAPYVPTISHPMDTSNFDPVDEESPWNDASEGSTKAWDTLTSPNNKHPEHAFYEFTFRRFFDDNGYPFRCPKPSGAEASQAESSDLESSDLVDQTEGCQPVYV
Human LATS2 kinase domain protein, sequence (Q7L9L4 whole entry partner, the tested form may be a part): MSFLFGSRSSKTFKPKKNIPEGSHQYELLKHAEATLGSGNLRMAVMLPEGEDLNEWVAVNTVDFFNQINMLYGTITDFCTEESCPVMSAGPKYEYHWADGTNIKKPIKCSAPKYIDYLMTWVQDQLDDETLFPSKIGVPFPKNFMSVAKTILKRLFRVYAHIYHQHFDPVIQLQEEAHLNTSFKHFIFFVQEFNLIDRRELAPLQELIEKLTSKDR
How it was run: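 LATS2 catalytic domain (aa 553-1088), co-purified with His-tagged MOBKL1A, reacted with compound for 3 h at 25° C before EDTA (25 mM) stop. Substrate and product separated by microfluidic electrophoresis (Caliper LabChip 3000) and quantified by fluorescence intensity.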

[4] = system: Phospho-YAP (Ser127) in JHH-5 cells; test: pYAP HTRF Assay (JHH-5 cells); type: cell-based; conditions: 2 hours
How it was run: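 JHH-5 cells (24000/well) cultured 24 h at 37 °C in William's E with 10% FBS, then exposed to compounds for 2 h at 37 °C. After lysis, pYAP d2/cryptate antibodies incubated 18 h at room temperature; HTRF ratio 665/620 nm ×10000.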

[5] = system: human limbal stem cells (LSCs); test: Human limbal stem cell population expansion: percentage of p63alpha-positive cells; type: cell-based; conditions: 10 micromolar, XVIVO15 medium
Method: (§1) Cells were cultured at 37° C. in 5% CO2.
For each compound, two sets of cultures were generated. A first set of cultures was fixed in 4% PFA for 20 minutes at room temperature after cells isolated from the cornea had attached to the cell culture dish (typically 24 h after cell plating). A second set of cultures was fixed in 4% PFA for 20 minutes at room temperature after being cultured for two passages. Cells were passaged when they reached 90-100% confluence.
In order to observe that the expanded cell population expressed p63alpha, this was measured by immunohistochemistry as follows. The fixed cell cultures were permeabilized and blocked in a blocking solution of 0.3% Triton X-100 (Sigma-Aldrich) and 3% donkey serum in PBS for 30 minutes. Cells were then labeled with primary antibody in the blocking solution for 12 hours at 4° C. Primary antibody used was p63alpha from Cell Signalling. Samples were washed in PBS three times and donkey-raised secondary antibody Alexa Fluor 488 (Molecular Probes) at 1:500 dilution were applied for 30 minutes at room temperature. Cell nuclei were then labeled in a solution of 0.5 micromolar of Sytox Orange (ThermoFisher) in PBS for 5 minutes at room temperature.
To evaluate the percentage of p63alpha-positive cells, the number of cells labeled by the anti-p63alpha antibody was counted and the total number of cells was determined by counting the number of nuclei stained by Sytox Orange. The proportion of p63alpha-positive cells was then determined by calculating the percentage of Sytox-orange-positive nuclei that also expressed p63alpha.

[6] = system: human corneal endothelial cells (CECs); test: Human corneal endothelial cell population expansion: fold cell expansion; type: cell-based; conditions: 10 micromolar compound, X-VIVO15 medium, 10 days, ratio of expanded to seeded cells
Method: as §1
(§2) For each compound, two sets of cultures were generated. A first set of cultures was fixed in 4% PFA for 20 minutes at room temperature after cells isolated from the cornea had attached to the cell culture dish (typically 24 h after cell plating). A second set of cultures was fixed in 4% PFA for 20 minutes at room temperature 10 days after the first one.
(§3) To measure cell density in all fixed cultures, the number of nuclei stained with Sytox Orange (ThermoFisher) were counted per surface area as follows: fixed cell cultures fixed were permeabilized in a solution of 0.3% Triton X-100 (Sigma-Aldrich). Cells were then labeled in a solution of 0.5 micromolar of Sytox Orange in PBS for 5 minutes at room temperature. Nuclei were counted under a Zeiss epifluorescence microscope. The expansion factor was then determined by calculating the ratio of the expanded population of cells to population of seeded cells.

[7] = system: human corneal endothelial cells (CECs); test: Human corneal endothelial cell population expansion: endothelial cell density in vitro; type: cell-based; conditions: 10 micromolar compound, X-VIVO15 medium, 10 days
Method: as §1, §2, §3

LATS1, sequence (O95835 whole entry, looked up, the tested form may be a part): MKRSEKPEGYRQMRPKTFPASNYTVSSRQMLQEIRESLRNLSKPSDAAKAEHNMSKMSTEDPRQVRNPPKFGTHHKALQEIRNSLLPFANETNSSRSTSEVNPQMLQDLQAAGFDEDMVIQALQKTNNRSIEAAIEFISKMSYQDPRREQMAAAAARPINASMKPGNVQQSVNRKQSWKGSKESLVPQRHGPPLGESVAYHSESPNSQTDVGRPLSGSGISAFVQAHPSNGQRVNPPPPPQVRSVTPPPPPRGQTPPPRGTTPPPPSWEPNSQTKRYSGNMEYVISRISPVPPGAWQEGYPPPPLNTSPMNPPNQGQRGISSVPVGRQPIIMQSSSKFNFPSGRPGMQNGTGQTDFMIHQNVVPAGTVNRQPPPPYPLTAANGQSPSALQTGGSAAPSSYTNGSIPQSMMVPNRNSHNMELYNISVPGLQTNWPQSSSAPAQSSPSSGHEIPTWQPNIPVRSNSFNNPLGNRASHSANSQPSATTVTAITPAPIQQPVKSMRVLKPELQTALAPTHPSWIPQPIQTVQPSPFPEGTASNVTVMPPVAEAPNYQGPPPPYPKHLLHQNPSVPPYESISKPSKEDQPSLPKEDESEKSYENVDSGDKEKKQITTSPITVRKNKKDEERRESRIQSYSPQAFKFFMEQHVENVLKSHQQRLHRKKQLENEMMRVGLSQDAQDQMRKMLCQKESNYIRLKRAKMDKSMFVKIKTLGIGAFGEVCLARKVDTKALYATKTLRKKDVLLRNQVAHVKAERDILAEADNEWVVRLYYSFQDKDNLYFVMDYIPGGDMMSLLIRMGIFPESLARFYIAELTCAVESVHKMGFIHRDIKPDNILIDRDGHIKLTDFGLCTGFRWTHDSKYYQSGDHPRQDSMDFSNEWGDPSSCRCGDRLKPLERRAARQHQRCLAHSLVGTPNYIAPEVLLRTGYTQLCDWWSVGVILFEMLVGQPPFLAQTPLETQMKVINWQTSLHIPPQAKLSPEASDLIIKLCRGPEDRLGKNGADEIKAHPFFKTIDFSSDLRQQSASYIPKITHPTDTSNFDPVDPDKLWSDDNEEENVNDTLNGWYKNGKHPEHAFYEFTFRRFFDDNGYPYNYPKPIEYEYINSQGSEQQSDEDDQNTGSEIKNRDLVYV
LATS1, sequence (Q7L9L4 whole entry partner, looked up, the tested form may be a part): as the sequence (Q7L9L4 whole entry partner, the tested form may be a part) above
Human LATS1 kinase domain protein, sequence (O95835 whole entry, looked up, the tested form may be a part): as the sequence (O95835 whole entry, looked up, the tested form may be a part) above
Human LATS1 kinase domain protein, sequence (Q7L9L4 whole entry partner, looked up, the tested form may be a part): as the sequence (Q7L9L4 whole entry partner, the tested form may be a part) above

| Structure (SMILES) | IC50 [1] | IC50 [2] | IC50 [3] | IC50 [4] | Percentage of p63a-positive cells [5] | Expansion factor (Fold Cell expansion) [6] | Endothelial Cell density in vitro [7] |
| --- | --- | --- | --- | --- | --- | --- | --- |
| Cc1n[nH]cc1-c1nc(NC2(C)CC2)c2ccncc2n1 [Example 133, 2-(3-methyl-1H-pyrazol-4-yl)-N-(1-methylcyclopropyl)pyrido[3,4-d]pyrimidin-4-amine] | 2 nM | 4 nM | 4 nM | 1700 nM | 89% | 273 | 2028 cells/mm^2 |
| c1cc(-c2nc(NC3CCCC3)c3ccncc3n2)ccn1 [Example 65, N-cyclopentyl-2-(pyridin-4-yl)pyrido[3,4-d]pyrimidin-4-amine] | 2 nM | 22 nM | 30 nM | 5800 nM | 87% | 203 | 1702 cells/mm^2 |
| CC(C)(O)CC(C)(C)Nc1nc(-c2ccncc2)nc2cnccc12 [Example 49, 2,4-dimethyl-4-{[2-(pyridin-4-yl)pyrido[3,4-d]pyrimidin-4-yl]amino}pentan-2-ol] | 1 nM | 12 nM | 21 nM | 1600 nM | 92% | 426 | 3873 cells/mm^2 |
| CCCNc1nc(-c2ccncc2)nc2cnccc12 [Example 14, N-propyl-2-(pyridin-4-yl)pyrido[3,4-d]pyrimidin-4-amine] | 2 nM | 34 nM | 50 nM | > 10000 nM | 93% | 337 | 3271 cells/mm^2 |
| CC(C)(C)Nc1cc(-c2ccncc2)nc2cnccc12 [Example 261, N-(tert-butyl)-2-(pyridin-4-yl)-1,7-naphthyridin-4-amine] | 1 nM |  | 4 nM | 600 nM | 93% | 461 | 4308 cells/mm^2 |
